Experiments:
JAK2 = JAK2 (Homo sapiens, UniProt O60674); assay: in vitro JAK2 kinase activity test, Mobility Shift Assay; type: biochemical; settings: compound concentration 0.1 μM; read-out: Percentage of inhibition against JAK2 at 0.1 μM
Method: The in vitro JAK2 and FLT3 kinase activity test was performed on the compounds of the 2-aminopyrimidine backbone of the above formula I (concentration 0.1 μM) according to the present invention using Mobility Shift Assay. The control compounds Pacritinib and Fedratinib were prepared by our research group.
(§1) The kinase buffer was composed of 50 mM HEPEs (pH 7.5) and 0.0015% BRIJ-35. The stop buffer contained a mixture of 100 mM HEPES (pH 7.5), 0.015% BRIJ-35, 0.2% coating reagent #3 and 50 mM EDTA. The compound to be tested was diluted with 100% DMSO to 50 times the highest concentration required in the reaction. The dilution of compound to be tested (100 μL) was transferred to the wells of a 96-well plate. […] was added to two wells of the plate as a control group and the plate was marked as the source plate. 10 μL of compound was transferred from the source plate to a new 96-well plate to prepare an intermediate plate. In the intermediate plate, an additional 90 μL of kinase buffer was added to each well. The intermediate plate was shaken for 10 minutes, and then 5 μL of each well of the 96-well intermediate plate was copied to a 384-well plate as an analysis plate. The prepared enzyme solution was added to each well of the 384-well plate, then incubated at room temperature for 10 minutes, and then 10 μL of the prepared peptide solution (FAM-labeled peptide and ATP in kinase-based buffer) was added. The sample was incubated at 28° C. for 1 hours, and then 25 μL of buffer was added. The conversion data from the Caliper program was copied and converted to the inhibition rate.
(§2) Inhibition rate (%)=(max−conversion)/(max−min)×100.

FLT3 = biological target: T1, FLT3 (Homo sapiens, UniProt P36888); assay: in vitro FLT3 kinase activity test, Mobility Shift Assay; type: biochemical; settings: compound concentration 0.1 μM; read-out: Percentage of inhibition against FLT3 at 0.1 μM
T1 sequence (P36888 27-993): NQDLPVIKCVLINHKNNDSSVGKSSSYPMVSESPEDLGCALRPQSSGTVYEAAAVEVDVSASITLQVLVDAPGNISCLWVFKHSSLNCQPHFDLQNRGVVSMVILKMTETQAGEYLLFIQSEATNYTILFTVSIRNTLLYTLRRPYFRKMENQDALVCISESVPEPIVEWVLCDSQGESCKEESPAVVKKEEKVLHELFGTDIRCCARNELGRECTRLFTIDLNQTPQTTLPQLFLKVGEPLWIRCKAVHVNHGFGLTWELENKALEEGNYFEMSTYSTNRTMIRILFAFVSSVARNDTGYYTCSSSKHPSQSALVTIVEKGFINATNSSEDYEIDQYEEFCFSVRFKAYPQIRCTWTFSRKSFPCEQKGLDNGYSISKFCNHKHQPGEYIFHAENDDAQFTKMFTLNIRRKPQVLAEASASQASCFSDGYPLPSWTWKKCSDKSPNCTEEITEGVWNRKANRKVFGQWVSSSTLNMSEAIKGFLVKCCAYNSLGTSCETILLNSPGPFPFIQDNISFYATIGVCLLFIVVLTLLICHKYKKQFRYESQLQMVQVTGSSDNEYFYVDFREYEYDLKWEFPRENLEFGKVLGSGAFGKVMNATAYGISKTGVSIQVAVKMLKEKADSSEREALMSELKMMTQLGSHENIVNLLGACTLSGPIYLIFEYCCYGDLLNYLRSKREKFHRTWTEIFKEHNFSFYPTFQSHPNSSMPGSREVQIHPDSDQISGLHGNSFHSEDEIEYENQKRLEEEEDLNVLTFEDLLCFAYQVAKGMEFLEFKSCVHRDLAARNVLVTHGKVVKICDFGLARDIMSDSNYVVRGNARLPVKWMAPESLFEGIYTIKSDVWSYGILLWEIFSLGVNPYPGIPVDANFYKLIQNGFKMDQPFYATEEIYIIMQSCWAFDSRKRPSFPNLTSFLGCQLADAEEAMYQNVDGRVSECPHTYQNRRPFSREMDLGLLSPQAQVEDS
Method: The in vitro JAK2 and FLT3 kinase activity test was performed on the compounds of the 2-aminopyrimidine backbone of the above formula I (concentration 0.1 μM) according to the present invention using Mobility Shift Assay.
as §1, §2

[1] = tested on: human erythroleukemia cells HEL; assay: anti-tumor cell proliferation activity (CCK-8), HEL; type: cell-based; settings: 72 hours incubation
Method: (§3) The compound of the 2-aminopyrimidine skeleton of the above formula I according to the present invention was tested in vitro to inhibit the activity of human erythroleukemia cells HEL and human myeloid monocytic leukemia cells Molm-13. The control compounds Pacritinib and Fedratinib were prepared by our research group.
(§4) After the cells are resuscitated and passaged 2-3 times to stable state, 10 μL of the cell suspension was pipetted to a cell counting plate for counting, and the cell concentration was adjusted to 10×10^4 cells/mL. No cell solution was added to the outermost wells of the 96-well plate, and 100 μL of cell suspension was added to each of the remaining wells. 100 μL of medium was added to wells B2-B7 as a control group, and other wells were added with different concentrations of the compounds to be tested. After 72 hours of incubation in the incubator, 200 μL, of fresh medium was added to well A1 as a blank group, and then 20 µL of CCK-8 solution was added to each well, and the incubation continued for 4 hours. The 96-well plate was shaken at room temperature for 3 minutes, and then the absorbance at 450 nm wavelength was measured with a microplate reader, and the inhibition rate of cell growth was calculated according to the following formula:
(§5) Inhibition rate (%)=[(A control−A addition)/(A control−A blank)]×100
(§6) IC50 is the drug concentration required to inhibit half of the cell growth. According to the results of drug concentration and inhibition rate, GraphPad Prism version 5 software is used to calculate IC50 through the dose-effect curve.

[2] = tested on: human myeloid monocytic leukemia cells Molm-13; assay: anti-tumor cell proliferation activity (CCK-8), Molm-13; type: cell-based; settings: Molm-13 cells, 72 hours incubation
Method: as §3, §4, §5, §6

JAK2, sequence (O60674 whole entry): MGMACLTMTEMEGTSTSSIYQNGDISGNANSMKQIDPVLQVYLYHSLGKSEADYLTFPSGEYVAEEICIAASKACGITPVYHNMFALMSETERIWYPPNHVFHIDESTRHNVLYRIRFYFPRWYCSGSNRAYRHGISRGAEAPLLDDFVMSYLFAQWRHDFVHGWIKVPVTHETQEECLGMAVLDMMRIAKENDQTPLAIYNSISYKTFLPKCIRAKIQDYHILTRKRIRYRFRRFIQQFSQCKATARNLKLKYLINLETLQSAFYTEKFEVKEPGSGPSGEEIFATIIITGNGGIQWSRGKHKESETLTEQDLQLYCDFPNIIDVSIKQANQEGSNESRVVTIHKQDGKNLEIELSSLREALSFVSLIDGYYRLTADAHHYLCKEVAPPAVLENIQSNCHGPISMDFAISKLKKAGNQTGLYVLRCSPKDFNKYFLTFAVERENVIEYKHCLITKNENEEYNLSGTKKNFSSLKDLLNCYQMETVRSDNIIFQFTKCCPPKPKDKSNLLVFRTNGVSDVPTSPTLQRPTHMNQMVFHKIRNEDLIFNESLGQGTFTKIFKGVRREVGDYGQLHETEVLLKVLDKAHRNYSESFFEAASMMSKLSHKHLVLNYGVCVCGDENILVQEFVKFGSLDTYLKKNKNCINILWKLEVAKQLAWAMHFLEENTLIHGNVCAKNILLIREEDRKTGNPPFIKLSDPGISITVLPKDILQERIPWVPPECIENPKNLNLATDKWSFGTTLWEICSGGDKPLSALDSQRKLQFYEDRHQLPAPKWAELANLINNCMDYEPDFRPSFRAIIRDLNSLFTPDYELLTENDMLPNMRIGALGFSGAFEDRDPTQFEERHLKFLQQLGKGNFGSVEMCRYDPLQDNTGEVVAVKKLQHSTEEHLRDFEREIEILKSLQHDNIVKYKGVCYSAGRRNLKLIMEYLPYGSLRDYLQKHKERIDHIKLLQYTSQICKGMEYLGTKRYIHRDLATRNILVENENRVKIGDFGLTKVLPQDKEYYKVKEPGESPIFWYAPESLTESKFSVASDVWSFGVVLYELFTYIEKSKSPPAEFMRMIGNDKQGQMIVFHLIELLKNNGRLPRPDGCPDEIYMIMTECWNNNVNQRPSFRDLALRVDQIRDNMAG

inhibition at 0.1 µM (JAK2)	inhibition at 0.1 µM (FLT3)	IC50 [1]	IC50 [2]	Structure (SMILES)
76.7%	72.3%	4300 nM	77 nM	CC(=O)c1ccc(NC(=O)N2CCN(c3ccnc(Nc4ccc(N5CCOCC5)cc4)n3)CC2)cc1 [Example 6, N-(4-acetylphenyl)-4-(2-{[4-(morpholin-4-yl)phenyl]amino}pyrimidin-4-yl)piperazine-1-carboxamide]
88.5%	95.2%	900 nM	72 nM	Cc1cnc(Nc2ccc(N3CCOCC3)cc2)nc1N1CCN(C(=O)Nc2ccc(C#N)cc2)CC1 [Example 20, N-(4-cyanophenyl)-4-(5-methyl-2-{[4-(morpholin-4-yl)phenyl]amino}pyrimidin-4-yl)piperazine-1-carboxamide]
81.8%	99.1%	800 nM	42 nM	CC(=O)c1ccc(NC(=O)N2CCN(c3nc(Nc4ccc(N5CCOCC5)cc4)ncc3C)CC2)cc1 [Example 22, N-(4-acetylphenyl)-4-(5-methyl-2-{[4-(morpholin-4-yl)phenyl]amino}pyrimidin-4-yl)piperazine-1-carboxamide]
74.6%	82.5%	4600 nM	83 nM	CC(=O)c1ccc(NC(=O)N2CCN(c3nc(Nc4ccc(N5CCOCC5)cc4)ncc3C(F)(F)F)CC2)cc1 [Example 26, N-(4-acetylphenyl)-4-(5-trifluoromethyl-2-{[4-(morpholin-4-yl)phenyl]amino}pyrimidin-4-yl)piperazine-1-carboxamide]
80.5%	78.6%	6700 nM	350 nM	CC(=O)c1ccc(NC(=O)N2CCC(Nc3nc(Nc4ccc(N5CCOCC5)cc4)ncc3C)CC2)cc1 [Example 32, N-(4-acetylphenyl)-4-[(5-methyl-2-{[4-(morpholin-4-yl)phenyl]amino}pyrimidin-4-yl)amino]piperidine-1-carboxamide]
74.3%	97%	1700 nM	62 nM	CC(=O)c1ccc(NC(=O)C2CCN(c3nc(Nc4ccc(N5CCOCC5)cc4)ncc3C)CC2)cc1 [Example 33, N-(4-acetylphenyl)-1-(5-methyl-2-{[4-(morpholin-4-yl)phenyl]amino}pyrimidin-4-yl)piperidine-4-carboxamide]
95.2%	88.7%	890 nM	68 nM	Cc1cnc(Nc2ccc(OCCN3CCCC3)cc2)nc1Nc1cccc(S(=O)(=O)NC(C)(C)C)c1 [Fedratinib, reference compound]
92%		1100 nM	23 nM	C1=C/COCc2cc(ccc2OCCN2CCCC2)Nc2nccc(n2)-c2cccc(c2)COC/1 [Pacritinib, reference compound]
